Results from patent US5684020A, “Piperazine, piperidine and 1,2,5,6-tetrahydropyridine” (Adir et Compagnie, priority 1995, dated 1997).

Experiments:
schizophrenia patients = details: Davis et al., 1983; cited from earlier work
dopamine turnover = experiment: Dopamine turnover (DOPAC/dopamine ratio) in rat brain structures; assay type: in vivo, Male Wistar rats; details: regions studied: frontal cortex, nucleus accumbens, olfactory tubercles, striatum
Method: by dopamine synthesis (turnover) studies in the following structures: frontal cortex (mesocortical pathway), nucleus accumbens and olfactory tubercle (mesolimbic pathway), striatum (nigrostriatal pathway). The functional dopaminergic antagonists cause an increase in the synthesis of dopamine in those structures.
Male Wistar rats (Iffa Credo, Illskirchen France) weighing 250 to 280 g are kept in a 12h/12h light/darkness cycle (light switched on at 7.30 a.m.). They have free access to water and food; the laboratory temperature is 21°±1° C. and the humidity is 60±5%.
Dopamine turnover: The effect of the products of the invention and the reference product on dopamine turnover is determined after subcutaneous injection. After a period of 30 minutes, the rats are decapitated and the brain is dissected in order to extract the striatum, the nucleus accumbens, the frontal cortex and the olfactory tubercles. The tissues are homogenised in 500 μl of HClO4 0.1M containing 0.5% Na2 S2 O5 and 0.5% EDTA Na2 and centrifuged at 15,000 g for 15 minutes at 4° C. The supernatants are diluted in the mobile phase and injected into an HPLC column (Hypersil ODS 5 μm, C18, 150×4.6mm, Thermo Separation Products, Les Ulis, France) thermostatically controlled at 25° C. […]

[1] = Induction of catalepsy in the rat; details: in vivo, sc, 1 hour after injection, 50% of maximum 30 seconds
Source text: 3. Induction of catalepsy in the rat
The acute administration of "typical" antipsychotics to an animal induces catalepsy, that is to say the maintenance of the animal in an often abnormal posture which has been imposed upon it by the experimenter (Waldmeier, 1979). The evaluation of the cataleptogenic properties of a product in the rat thus makes it possible to know whether that product, administered to man, will or will not risk causing an extrapyramidal-type syndrome.
Test: The animals are placed in individual cages and food is withdrawn the day before the test but water taken as desired. The catalepsy test comprises placing each rear paw of the animal on the front paw of the same side and measuring the time (seconds) that the animal remains in that "crossed paws" position (maximum 30 seconds). Each animal is subjected to 3 successive tests (one every two minutes), the animal being removed from its cage and placed on the work surface. Those tests are carded out 1 hour after the subcutaneous injection or oral administration of the product or its solvent. The average value of 3 tests represents the duration of the catalepsy (seconds) for each animal. There are 5 or 6 rats per experimental group.
Statistical analysis: The effect of the product on the duration of the catalepsy is evaluated by an ANOVA, followed by a Dunnett's test, with the probability p<0.05. […]

[2] = system: Verticalisation induced by apomorphine; experiment: Verticalisation induced by apomorphine in the mouse; assay type: in vivo; details: sc, 0.5 h, s.c., apomorphine 0.75 mg/kg s.c. 30 minutes later, read-out: ID50 (dose reducing by half the average verticalisation score)
Method: 1. Verticalisation induced by apomorphine (0.75 mg/kg, s.c.) in the mouse
This test, described by Protais et al (Psychopharmacologie, 1976, 50, 1-6) allows the evaluation of the dopaminergic antagonist activity of possible antipsychotic products. A mouse to which apomorphine has been administered and which has been placed in a cage comprising vertical bars, remains most of the time immobile at the top of the cage clinging by its 4 paws to the bars. That verticalisation behaviour is blocked if a dopaminergic antagonist product has been administered before the apomorphine.
Test: After the subcutaneous (s.c.) administration of the product or solvent (control group), the mouse is placed in a cylindrical barred cage (14 cm diam.×14 cm h) having vertical bars. Thirty minutes later, the animal receives the apomorphine dose (0.75 mg/kg, s.c.). […]
Statistical analysis: The effect of the product on verticalisation is evaluated by comparing the scores obtained for each group that has been administered a dose of product with those obtained for the control group (solvent) using a Mann and Whitney U test, with a probability p<0.05. […]

[3] = system: aggressiveness in isolated mice; experiment: Test of aggressiveness in isolated mice; assay type: in vivo, male CD mice; details: Mus musculus, sc; 30 minutes before test; read-out: ID50 (dose reducing by half number or duration of attacks)
Source text: 2. Test of aggressiveness in isolated mice
This test allows the evaluation of the intraspecies anti-aggressive activity of a product in mice that have been kept in isolation for several months.
Animals: The test uses male CD mice (Charles River) weighing from 22 to 25 g when they arrive at the animal house. On their arrival, the animals are isolated in individual cages made of opaque black polycarbonate (23×14×13 cm) with a grill lid, and are housed for a prolonged period (approximately 6 months) in the experimentation room.
Selection of pairs of mice: The selection of aggressive pairs of mice that will be used chronically in the study commences after the animals have been isolated for one month. […]
Test: The test takes place once a week. […] The latent period (in seconds) of the first attack and the number and total duration (in seconds) of the attacks are recorded. […]
Statistical analysis: The effects of a product on aggressiveness are evaluated by comparing the number and the duration of the attacks by the pairs of mice that have received the product (treated groups) with those obtained with the pairs that have received the solvent (control group) by using a variance analysis (ANOVA) followed by a Dunnett's test, with the probability p<0.05. […]

Row | SMILES | extrapyramidal symptoms (in words) (schizophrenia patients) | effect on dopaminergic transmission (in words) (dopamine turnover) | ED50 at 1 h [1] [mg/kg] | ED50 [2] [mg/kg] | ED50 [3] [mg/kg]
1 | O=C(CCCN1CCC(O)(c2ccc(Cl)cc2)CC1)c1ccc(F)cc1 [Haloperidol] | often brings about the appearance of undesirable extrapyramidal symptoms (EPS) of the Parkinson's type | significant effect on dopaminergic transmission in each of the regions studied | 0.146 | – | –
2 | CN(C)CCCN1c2ccccc2Sc2ccc(Cl)cc21 [chlorpromazine] | often brings about the appearance of undesirable extrapyramidal symptoms (EPS) of the Parkinson's type | – | – | – | –
3 | c1ccc2c(c1)CC(CN1CCN(c3ccc4c(c3)OCCO4)CC1)C2 [Example 6, 4-(2,3-Dihydrobenzo-1,4-dioxin-6-yl)-1-(indan-2-ylmethyl)piperazine] | – | – | > 80 | 3.88 | 0.99
4 | CN1CCN(C2=Nc3cc(Cl)ccc3Nc3ccccc32)CC1 [clozapine] | cause few extrapyramidal symptoms | – | – | – | –
